pIC50: −log10 of the molar value. Where two headings read alike, the source gives them in different places. Square brackets hold non-standard residues; d marks the D form. Peptide text beside a SMILES is read from it. * marks the point of attachment. ξ: configuration not given here. Hydrocinnamoyl = O=C(CCc1ccccc1)*; Thz = O=C(O)[C@@H]1CSCN1; Cbz = O=C(OCc1ccccc1)*; ξPip = O=C(O)C1CCCCN1; CH2Cl = ClC*
Assays:
prolyl endopeptidase [1] = molecular target: T1, prolyl endopeptidase (Bos taurus, UniProt Q9XTA2); test: Prolyl endopeptidase inhibitory activity in vitro; assay type: biochemical, bovine
T1 construct: purified from bovine brain; from tissue; host or cells: bovine brain
T1 sequence (Q9XTA2 whole entry): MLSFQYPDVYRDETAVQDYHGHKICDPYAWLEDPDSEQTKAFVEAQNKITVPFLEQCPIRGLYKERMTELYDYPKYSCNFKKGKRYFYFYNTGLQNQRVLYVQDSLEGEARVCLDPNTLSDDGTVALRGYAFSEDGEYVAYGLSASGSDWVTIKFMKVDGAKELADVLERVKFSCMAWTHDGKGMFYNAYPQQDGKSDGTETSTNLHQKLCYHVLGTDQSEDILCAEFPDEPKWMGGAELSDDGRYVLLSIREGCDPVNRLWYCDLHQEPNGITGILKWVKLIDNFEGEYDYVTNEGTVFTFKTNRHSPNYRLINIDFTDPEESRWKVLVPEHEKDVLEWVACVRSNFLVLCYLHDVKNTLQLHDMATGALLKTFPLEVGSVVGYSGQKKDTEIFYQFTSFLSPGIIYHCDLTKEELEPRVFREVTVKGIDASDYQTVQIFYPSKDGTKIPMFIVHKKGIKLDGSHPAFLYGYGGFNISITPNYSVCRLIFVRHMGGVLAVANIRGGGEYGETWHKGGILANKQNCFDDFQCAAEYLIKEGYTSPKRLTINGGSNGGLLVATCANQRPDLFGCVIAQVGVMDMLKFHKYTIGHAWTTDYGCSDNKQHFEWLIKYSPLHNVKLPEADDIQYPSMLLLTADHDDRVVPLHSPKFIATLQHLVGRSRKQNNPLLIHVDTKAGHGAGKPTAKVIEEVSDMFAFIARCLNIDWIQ
Description: Inhibitory activity of prolyl endopeptidase in vitro was measured by the following test system.
A mixed solution of 20 mM tris-HCl buffer (pH 7.5; 935 μl; containing 10 mM EDTA and 10 mM mercaptoethanol), a solution of a compound of the present invention in DMSO (10 μl) and a solution of prolyl endopeptidase which was purified from bovine brain (0.13 unit; prepared by the method described in J. Biochem., 94, 1179 (1983)) in tris-HCl buffer (15 μl) was preincubated for 15 mins at 37° C.
To the solution, 5 mM of N-benzyloxycarbonyl-glycyl-prolyl-p-nitroanilide (40 μl) in a mixture of 40% dioxane--60% water was added. Ths solution was incubated for 1 min at the same temperature.
Optical absorption (a1) at 405 nm of the solution, and optical absorption (a2) at 405 nm of the solution after more 30 mins' incubation at 37° C. were measured.
Optical absorptions (b1 and b2) of the solutions using DMSO instead of the solution of the compound of the present invention were also measured.
Inhibitory ratio was calculated by the following expression and IC50 (required concentration for 50% inhibition) was obtained (See Protein, Nucleic acid and Enzyme 25(6), 513, 1980.). [formula]

prolyl endopeptidase [2] = details: See J. Neurochem., 41, 69(1983); cited from earlier work
[3] = in vitro, purified from bovine brain, pH 7.5, 37° C., substrate N-benzyloxycarbonyl-glycyl-prolyl-p-nitroanilide, 405 nm, read-out: Concentration for 50% inhibition IC50

| SMILES | pIC50 (prolyl endopeptidase [1]; [3]) | also measured |
| --- | --- | --- |
| O=C[C@@H]1CSCN1C(=O)CCCCCCCCCc1ccccc1 [1 (b), (4R)3-(10-phenyldecanoyl) thiazolidin-4-al] | 6.14 |  |
| CC(C)C(CCCCCc1ccccc1)C(=O)N1CSC[C@H]1C=O (stereo partly drawn) [1 (c), (4R)3-(2-isopropyl-7-phenylheptanoyl)thiazolidin-7-al] | 7.06 |  |
| O=C[C@@H]1CSCN1C(=O)/C=C/c1ccc(CCCCCc2ccccc2)cc1 [1 (g), (4R)3-[4-(5-phenylpentyl)cinnamoyl]thiazolidin-4-al] |  | pIC50 (prolyl endopeptidase [1]): 5.32 |
| O=C[C@@H]1CSCN1C(=O)CCCOCc1ccccc1 [1 (i), (4R)3-(4-benzyloxybutyryl) thiazolidin-4-al] | 5.09 |  |
| O=C[C@@H]1CSCN1C(=O)CCC(=O)CCCc1ccccc1 [1 (k), (4R)3-(4-oxo-7-phenylheptanoyl) thiazolidin-4-al] | 7.80 |  |
| O=C[C@@H]1CSCN1C(=O)C1CCC[C@H]1C(=O)CCc1ccccc1 (stereo partly drawn) [1 (l), (4R)3-[(2R)2-(3-phenylpropionyl)cyclopentanecarbonyl]thiazolidin-4-al] | 7.66 |  |
| O=C[C@@H]1CSCN1C(=O)C1CCCCN1C(=O)CCc1ccccc1 (stereo partly drawn) [1 (n), (4R)3-[1-(3-phenylpropionyl)piperidine-2-carbonyl]thiazolidin-4-al] (Hydrocinnamoyl-[ξPip]-[Thz]-aldehyde) | 7.70 |  |
| CC(C)C(NC(=O)CCCc1ccccc1)C(=O)N1CSC[C@H]1C=O (stereo partly drawn) [1 (q), (4R)3-[2-(4-phenylbutyrylamino)-3-methylbutyryl]thiazolidin-4-al] | 8.24 |  |
| O=C[C@@H]1CSCN1C(=O)CCC(=O)N(Cc1ccccc1)c1ccccc1 [1 (s), (4R)3-[3-(Nbenzyl-Nphenylcarbamoyl)propionyl]thiazolidin-4-al] | 8.17 |  |
| COc1ccc(CNC(=O)CCC(=O)N2CSC[C@H]2C=O)cc1 [1 (t), (4R)3-[3-[N(4-methoxybenzyl)carbamoyl]propionyl]thiazolidin-4-al] | 7.46 |  |
| O=C[C@@H]1CSCN1C(=O)C1CCCC1C(=O)NCc1ccccc1 (stereo partly drawn) [1 (v), (4R)3-[2-[Nbenzylcarbamoyl)cyclopentanecarbonyl]thiazolidin-4-al] | 7.08 |  |
| O=C(NCC(=O)N1CCC[C@H]1C(=O)CCl)OCc1ccccc1 [N-benzyloxycarbonyl-glycyl-L-prolyl-chloromethane] (Cbz-Gly-Pro-CH2Cl) |  | inhibition of prolyl endopeptidase (in words) (prolyl endopeptidase [2]): strongly inhibit |
